Data published in patent US7977363B2, “Biphenyl-thiazolo-carboxamides” (Bayer Cropscience AG, priority 2004, dated 2011).
Read-outs that look alike come from different tables or passages of the source.

What was measured:
[1] = Log P determination by HPLC on reversed-phase column (EEC Directive 79/831, Annex V.A8); format: physicochemical; conditions: reversed-phase HPLC column (C18)
Protocol: The determination of the Log P values occurred according to EEC Directive 79/831, Annex V.A8 using HPLC (High Performance Liquid Chromatography) on a reversed-phase column (C 18). Temperature: 43° C. Eluents for determination in the acidic range (pH 2.3): 0.1% aqueous phosphoric acid, acetonitrile; linear gradient of 10% acetonitrile to 90% acetonitrile. Calibration took place using unbranched alkane-2-ones (with 3 to 16 carbon atoms) with known Log P values (the Log P values were determined on the basis of the retention times by way of linear interpolation between two consecutive alkanones).

[2] = tested on: Podosphaera leucotricha; assay: Podosphaera Test (Apple)/Protective; format: in vivo; conditions: 240 h, protective, evaluated 10 days after inoculation, read-out: Efficacy in %
Protocol: (§1) [table] To produce a suitable preparation of active compound, 1 part by weight of active compound is mixed with the stated amounts of solvent and emulsifier, and the concentrate is diluted with water to the desired concentration. In order to test the protective activity, young plants are sprayed with the active compound preparation at the stated application rate. After the spray coating dries, the plants are inoculated with an aqueous spore suspension of Podosphaera leucotricha. The plants are then placed in the greenhouse at approx. 23° C. and at a relative humidity of approx. 70%. The results are evaluated 10 days after the inoculation. An efficacy of 0% corresponds to that of the control, while an efficacy of 100% means that no infestation is observed.

[3] = tested on: apple scab fungus Venturia inaequalis; assay: Venturia Test (Apple)/Protective; format: in vivo; conditions: 240 h, protective, evaluated 10 days after inoculation, read-out: Efficacy in %
Protocol: as §1, with “conidial” for “spore”, “the apple scab fungus Venturia inaequalis and then remain in an incubation cabinet for 1 day at approx. 20° C. and 100% relative humidity.” for “Podosphaera leucotricha.”, “21°” for “23°”, “90%.” for “70%.”

[4] = tested on: Botrytis cinerea; assay: Botrytis Test (Bean)/Protective; format: in vivo; conditions: 48 h, protective, evaluated 2 days after inoculation, read-out: Efficacy in %
Protocol: [table] To produce a suitable preparation of active compound, 1 part by weight of active compound is mixed with the stated amounts of solvent and emulsifier, and the concentrate is diluted with water to the desired concentration. In order to test the protective activity, young plants are sprayed with the active compound preparation at the stated application rate. After the spray coating dries, 2 small pieces of agar that are infested with Botrytis cinerea are placed on each leaf. The inoculated plants are placed in a darkened chamber at 20° C. and 100% relative humidity. The size of the infestation blotches on the leaves is evaluated 2 days after the inoculation. An efficacy of 0% corresponds to that of the control, while an efficacy of 100% means that no infestation is observed.

[5] = tested on: Pyrenophora teres; assay: Pyrenophora teres Test (Barley)/Protective; format: in vivo; conditions: protective, 500 g/ha, evaluated 7 days after inoculation
Protocol: [table] To produce a suitable preparation of active compound, 1 part by weight of active compound is mixed with the stated amounts of solvent and emulsifier, and the concentrate is diluted with water to the desired concentration. In order to test the protective activity, young plants are sprayed with the active compound preparation at the stated application rate. After the spray coating dries, the plants are sprayed with a conidial suspension of Pyrenophora teres. The plants remain in an incubation cabinet for 48 hours at 20° C. and 100% relative humidity. The plants are then placed in a greenhouse at a temperature of approx. 20° C. and a relative humidity of 80%. The results are evaluated 7 days after the inoculation. An efficacy of 0% corresponds to that of the control, while an efficacy of 100% means that no infestation is observed.

[6] = tested on: Alternaria solani; assay: Alternaria Test (Tomato)/Protective; format: in vivo; conditions: protective, 750 g/ha, evaluated 7 days after inoculation
Protocol: [table] To produce a suitable preparation of active compound, 1 part by weight of active compound is mixed with the stated amounts of solvent and emulsifier, and the concentrate is diluted with water to the desired concentration. In order to test the protective activity, young tomato plants are sprayed with the active compound preparation at the stated application rate. One day after treatment, the plants are inoculated with a spore suspension of Alternaria solani and then remain for 24 hours at 100% relative humidity and 20° C. The plants are then placed into in environment of 96% relative humidity at a temperature of 20° C. The results are evaluated 7 days after the inoculation. An efficacy of 0% corresponds to that of the control, while an efficacy of 100% means that no infestation is observed.

[7] = HPLC, C18 reversed phase, 43° C., acidic range (pH 2.3), read-out: Log P
[8] = pH 2.3, read-out: log P (pH 2.3)

With `Cc1nc(C(F)(F)F)c(C(=O)Nc2ccc(F)cc2-c2ccc(Cl)c(Cl)c2)s1` [Compound 2.11, N-(3′,4′-dichloro-5-fluorobiphenyl-2-yl)-2-methyl-4-(trifluoromethyl)-1,3-thiazole-5-carboxamide] the chromatographic logP [1, 7] was 3.93.

In the case of `Cc1nc(C(F)F)c(C(=O)Nc2ccc(F)cc2-c2ccc(Cl)c(Cl)c2)s1` [Compound 2.12], the chromatographic logP [1, 7] is reported as 3.63.

For `Cc1nc(C(F)F)c(C(=O)Nc2c(F)cccc2-c2ccc(Cl)c(Cl)c2)s1` [Compound 2.13], the chromatographic logP [1, 7] was 3.43.

`Cc1nc(C(F)(F)F)c(C(=O)Nc2c(F)cccc2-c2ccc(Cl)c(Cl)c2)s1` [Compound 2.14] showed a chromatographic logP [1, 7] of 3.68.

Compound `Cc1nc(C(F)F)c(C(=O)Nc2c(F)cccc2-c2ccc(Cl)c(F)c2)s1` [Compound 2.16] has a chromatographic logP [1, 7] of 3.16.

Work on `Cc1nc(C(F)F)c(C(=O)Nc2ccc(F)cc2-c2ccc(Cl)c(F)c2)s1` [Compound 2.17] yielded a chromatographic logP [1, 7] of 3.36.

Work on `Cc1nc(C(F)(F)F)c(C(=O)Nc2ccc(F)cc2-c2ccc(Cl)c(F)c2)s1` [Compound 2.18, N-(4′-chloro-3′,5-difluorobiphenyl-2-yl)-2-methyl-4-(trifluoromethyl)-1,3-thiazole-5-carboxamide] yielded a chromatographic logP [1, 8] of 3.67.

For `Cc1nc(C(F)(F)F)c(C(=O)Nc2ccc(F)cc2-c2ccc(Cl)c(C)c2)s1` [Compound 2.20], the chromatographic logP [1, 7] was 3.99.

`Cc1nc(C(F)F)c(C(=O)Nc2ccc(F)cc2-c2ccc(Cl)c(C)c2)s1` [Compound 2.21] gave a chromatographic logP [1, 7] of 3.68.

`Nc1ccc(F)cc1-c1ccc(Cl)c(F)c1` [III-1, 4′-chloro-3′,5-difluorobiphenyl-2-amine] gave a chromatographic logP [1, 8] of 3.18.

Work on `Cc1nc(C(F)F)c(C(=O)Nc2ccc(F)cc2-c2ccc(Cl)c(Cl)c2)s1` [drawing 47] yielded a pest or weed control at 100 g/ha [2] of 100%.

Compound `Cc1nc(C(F)F)c(C(=O)Nc2c(F)cccc2-c2ccc(Cl)c(Cl)c2)s1` [drawing 48] has a pest or weed control at 100 g/ha [2] of 100%.

Compound `Cc1nc(C(F)(F)F)c(C(=O)Nc2ccc(F)cc2-c2ccc(Cl)c(Cl)c2)s1` [drawing 49] has a pest or weed control at 100 g/ha [2] of 100%.

Compound `Cc1nc(C(F)(F)F)c(C(=O)Nc2c(F)cccc2-c2ccc(Cl)c(Cl)c2)s1` [drawing 50] has a pest or weed control at 100 g/ha [2] of 100%.

Work on `Cc1nc(C(F)F)c(C(=O)Nc2c(F)cccc2-c2ccc(Cl)c(F)c2)s1` [drawing 51] yielded a pest or weed control at 100 g/ha [2] of 100%.

For `Cc1nc(C(F)(F)F)c(C(=O)Nc2ccc(F)cc2-c2ccc(Cl)c(F)c2)s1` [drawing 52], the pest or weed control at 100 g/ha [2] was 100%.

`Cc1nc(C(F)(F)F)c(C(=O)Nc2ccc(F)cc2-c2ccc(Cl)c(C)c2)s1` [drawing 53] showed a pest or weed control at 100 g/ha [2] of 100%.

In the case of `Cc1nc(C(F)F)c(C(=O)Nc2ccc(F)cc2-c2ccc(Cl)c(C)c2)s1` [drawing 54], the pest or weed control at 100 g/ha [2] is reported as 100%.

In the case of `Cc1nc(C(F)F)c(C(=O)Nc2ccc(F)cc2-c2cccc(C)c2F)s1` [drawing 55], the pest or weed control at 100 g/ha [2] is reported as 94%.

Compound `Cc1nc(C(F)F)c(C(=O)Nc2ccc(F)cc2-c2ccc(Cl)c(Cl)c2)s1` [drawing 56] has a pest or weed control at 100 g/ha [3] of 100%.

Work on `Cc1nc(C(F)F)c(C(=O)Nc2c(F)cccc2-c2ccc(Cl)c(Cl)c2)s1` [drawing 57] yielded a pest or weed control at 100 g/ha [3] of 100%.

`Cc1nc(C(F)(F)F)c(C(=O)Nc2ccc(F)cc2-c2ccc(Cl)c(Cl)c2)s1` [drawing 58] gave a pest or weed control at 100 g/ha [3] of 100%.

Work on `Cc1nc(C(F)(F)F)c(C(=O)Nc2c(F)cccc2-c2ccc(Cl)c(Cl)c2)s1` [drawing 59] yielded a pest or weed control at 100 g/ha [3] of 100%.

Work on `Cc1nc(C(F)F)c(C(=O)Nc2c(F)cccc2-c2ccc(Cl)c(F)c2)s1` [drawing 60] yielded a pest or weed control at 100 g/ha [3] of 100%.

`Cc1nc(C(F)(F)F)c(C(=O)Nc2ccc(F)cc2-c2ccc(Cl)c(F)c2)s1` [drawing 61] showed a pest or weed control at 100 g/ha [3] of 100%.

`Cc1nc(C(F)(F)F)c(C(=O)Nc2ccc(F)cc2-c2ccc(Cl)c(C)c2)s1` [drawing 62] gave a pest or weed control at 100 g/ha [3] of 100%.

Work on `Cc1nc(C(F)F)c(C(=O)Nc2ccc(F)cc2-c2ccc(Cl)c(C)c2)s1` [drawing 63] yielded a pest or weed control at 100 g/ha [3] of 100%.

In the case of `Cc1nc(C(F)F)c(C(=O)Nc2ccc(F)cc2-c2cccc(C)c2F)s1` [drawing 64], the pest or weed control at 100 g/ha [3] is reported as 98%.

Work on `Cc1nc(C(F)F)c(C(=O)Nc2ccc(F)cc2-c2ccc(Cl)c(Cl)c2)s1` [drawing 65] yielded a pest or weed control at 500 g/ha [4] of 100%.

For `Cc1nc(C(F)F)c(C(=O)Nc2c(F)cccc2-c2ccc(Cl)c(Cl)c2)s1` [drawing 66], the pest or weed control at 500 g/ha [4] was 100%.

`Cc1nc(C(F)(F)F)c(C(=O)Nc2ccc(F)cc2-c2ccc(Cl)c(Cl)c2)s1` [drawing 67] gave a pest or weed control at 500 g/ha [4] of 99%.

For `Cc1nc(C(F)(F)F)c(C(=O)Nc2c(F)cccc2-c2ccc(Cl)c(Cl)c2)s1` [drawing 68], the pest or weed control at 500 g/ha [4] was 98%.

`Cc1nc(C(F)F)c(C(=O)Nc2c(F)cccc2-c2ccc(Cl)c(F)c2)s1` [drawing 69] gave a pest or weed control at 500 g/ha [4] of 100%.

Compound `Cc1nc(C(F)(F)F)c(C(=O)Nc2ccc(F)cc2-c2ccc(Cl)c(F)c2)s1` [drawing 70] has a pest or weed control at 500 g/ha [4] of 100%.

For `Cc1nc(C(F)(F)F)c(C(=O)Nc2ccc(F)cc2-c2ccc(Cl)c(C)c2)s1` [drawing 71], the pest or weed control at 500 g/ha [4] was 100%.

Compound `Cc1nc(C(F)F)c(C(=O)Nc2ccc(F)cc2-c2ccc(Cl)c(C)c2)s1` [drawing 72] has a pest or weed control at 500 g/ha [4] of 100%.

`Cc1nc(C(F)F)c(C(=O)Nc2ccc(F)cc2-c2cccc(C)c2F)s1` [drawing 73] gave a pest or weed control at 500 g/ha [4] of 98%.

`Cc1nc(C(F)F)c(C(=O)Nc2ccc(F)cc2-c2ccc(Cl)c(Cl)c2)s1` [drawing 74] showed an Efficacy in % [5] of 100%.

For `Cc1nc(C(F)F)c(C(=O)Nc2c(F)cccc2-c2ccc(Cl)c(F)c2)s1` [drawing 75], the Efficacy in % [5] was 100%.

For `Cc1nc(C(F)(F)F)c(C(=O)Nc2ccc(F)cc2-c2ccc(Cl)c(F)c2)s1` [drawing 76], the Efficacy in % [5] was 100%.

Work on `Cc1nc(C(F)F)c(C(=O)Nc2ccc(F)cc2-c2ccc(Cl)c(F)c2)s1` [drawing 77] yielded an Efficacy in % [5] of 100%.

`Cc1nc(C(F)F)c(C(=O)Nc2ccc(F)cc2-c2ccc(Cl)c(C)c2)s1` [drawing 78] showed an Efficacy in % [5] of 100%.

In the case of `Cc1nc(C(F)F)c(C(=O)Nc2ccc(F)cc2-c2cccc(C)c2F)s1` [drawing 79], the Efficacy in % [5] is reported as 100%.

In the case of `Cc1nc(C(F)F)c(C(=O)Nc2c(F)cccc2-c2ccc(Cl)c(F)c2)s1` [drawing 80], the Efficacy in % [6] is reported as 100%.

`Cc1nc(C(F)(F)F)c(C(=O)Nc2ccc(F)cc2-c2ccc(Cl)c(F)c2)s1` [drawing 81] showed an Efficacy in % [6] of 100%.

`Cc1nc(C(F)F)c(C(=O)Nc2ccc(F)cc2-c2ccc(Cl)c(F)c2)s1` [drawing 82] gave an Efficacy in % [6] of 98%.
